# Experimental data as given in patent US6858589B2, “Methods of and compositions for potentiating the action of agents active on cell wall sites of the susceptible bacteria” (priority 1996, dated 2005).
# How the values were obtained:
# [1] = tested on: E. coli NCTC 10418; assay: Kill kinetics and regrowth of E. coli after gentamicin bolus pre-exposure followed by maintained cephazolin; type: cell-based, Escherichia coli; details: then cephazolin 0 mg/L
# Source text: In comparative experiments described in the examples herein, a reference strain of Escherichi coli (E. coli NCTC 10418) was exposed to constant concentrations of cephazolin in the culture medium (see FIGS. 1A and IIA).
# The experimental work described herein involved testing bacterial response while changing aminoglycoside concentrations with time in the test tube, and mimics closely measurements made in man under clinical conditions (Bastone E B, Li S C, Ioannides-Demos L L, Spicer J., McLean A J, “Kill kinetics and regrowth patterns of E. coli exposed to gentamicin concentration-time profiles simulating in vivo bolus or infusion dosing”, Antimicrob Agents Chemother. 37:914-917, 1993).
# The form of this profile is governed in vivo by distribution into tissue from the central circulation. In in vitro experiments, gentamicin was removed (T=0 time) by centrifugation and washing with antibiotic-free medium. The incubation was reconstituted with media containing 0 mg/l, 1 mg/l or 2 mg/l cephazolin (see FIG. IA).
# In FIG. IB, it can be seen that the pattern of growth of control organisms (not exposed to antibiotic) is designated by the dotted line ( - - - ), while the growth patterns of test organisms are represented by the solid lines with symbols indicating each type of treatment or test (FIG. IB).
# [2] = Gentamicin concentration-time profile measured in the in vitro culture medium
# Description: The aminoglycoside reached a peak concentration of 4 mg/l 30 minutes post-dose and was removed from the E. coli culture by washing. Medium containing 0, 2, 2.5 and 3 mg/l gentamicin was reconstituted and added to the culture at 1 hour after initial exposure to the aminoglycoside (n=6).
# With each antibiotic, concentration-time profiles similar to those observed in the blood of clinical patients following conventional intravenous dosing of an aminoglycoside (gentamicin) and pump-driven profiles of gentamicin and cephalosporin (cephazolin) were attained. The concentration-time profiles for each drug class have the general form shown in FIG. IA and FIG. IIIA of the accompanying drawings. Additionally a gentamicin profile of the form shown in FIG. IIIA was generated, which reached a peak of 12 mg/l over 3 hours, was maintained at 12 mg/l for a further hour, then was reconstituted to a range of steady-state concentrations (0, 0.5, 1.0, 2.0, 3.0, 4.0 mg/l) to yield the experimental results shown in Table 4.
# [3] = in vitro profile: peak 4 mg/liter, reconstituted to 3.0 mg/liter at 1 hr, maintained 0 hr (control)
# [4] = in vitro profile: peak 4 mg/liter, reconstituted to 3.0 mg/liter at 1 hr, maintained 2 hr
# [5] = in vitro profile: peak 4 mg/liter, reconstituted to 3.0 mg/liter at 1 hr, maintained 4 hr
# [6] = in vitro profile: peak 4 mg/liter, reconstituted to 3.0 mg/liter at 1 hr, maintained 8 hr
# [7] = in vitro profile: post-distribution peak 4 mg/liter, reconstituted at 1 hr to 0 mg/liter
# [8] = in vitro profile: post-distribution peak 4 mg/liter, reconstituted at 1 hr to 2.0 mg/liter
# [9] = in vitro profile: post-distribution peak 4 mg/liter, reconstituted at 1 hr to 2.5 mg/liter
# [10] = in vitro profile: post-distribution peak 4 mg/liter, reconstituted at 1 hr to 3.0 mg/liter
substance,measurement,setting,value
gentamicin,BACTERIAL COUNTS,"[1]; 8 mg/L bolus gentamicin, 2 h",1.32 ± 0.69 log10 cfu/mL
same,BACTERIAL COUNTS,"[1]; 8 mg/L bolus gentamicin, 8 h",4.91 ± 0.70 log10 cfu/mL
same,BACTERIAL COUNTS,"[1]; 8 mg/L bolus gentamicin, 24 h",8.88 ± 0.11 log10 cfu/mL
same,BACTERIAL COUNTS,"[1]; 8 mg/L bolus gentamicin, −0.5 h",5.87 ± 0.35 log10 cfu/mL
same,BACTERIAL COUNTS,"[1]; 12 mg/L bolus gentamicin, 2 h",0.69 ± 0.87 log10 cfu/mL
same,BACTERIAL COUNTS,"[1]; 12 mg/L bolus gentamicin, 8 h",4.54 ± 1.15 log10 cfu/mL
same,BACTERIAL COUNTS,"[1]; 12 mg/L bolus gentamicin, 24 h",8.80 ± 0.05 log10 cfu/mL
same,BACTERIAL COUNTS,"[1]; 12 mg/L bolus gentamicin, −0.5 h",6.10 ± 0.26 log10 cfu/mL
same,BACTERIAL COUNTS,"[1]; 16 mg/L bolus gentamicin, 2 h",0.48 ± 0.76 log10 cfu/mL
same,BACTERIAL COUNTS,"[1]; 16 mg/L bolus gentamicin, 8 h",3.85 ± 1.24 log10 cfu/mL
same,BACTERIAL COUNTS,"[1]; 16 mg/L bolus gentamicin, 24 h",8.79 ± 0.05 log10 cfu/mL
same,BACTERIAL COUNTS,"[1]; 16 mg/L bolus gentamicin, −0.5 h",5.85 ± 0.050 log10 cfu/mL
same,BACTERIAL COUNTS,"[1]; 20 mg/L bolus gentamicin, 2 h",NGD
same,BACTERIAL COUNTS,"[1]; 20 mg/L bolus gentamicin, 8 h",3.15 ± 0.734 log10 cfu/mL
same,BACTERIAL COUNTS,"[1]; 20 mg/L bolus gentamicin, 24 h",8.81 ± 0.04 log10 cfu/mL
same,BACTERIAL COUNTS,"[1]; 20 mg/L bolus gentamicin, −0.5 h",5.89 ± 0.03 log10 cfu/mL
same,AUC 0-49 h,[2]; [3],3.93 ± 0.33 µg·h/mL
same,Cmax,[2]; [3],6120 ± 350 ng/mL
same,Cmin,[2]; [3],0 ng/mL
same,AUC 0-49 h,[2]; [4],124.98 ± 3.08 µg·h/mL
same,Cmax,[2]; [4],6230 ± 270 ng/mL
same,Cmin,[2]; [4],2450 ± 240 ng/mL
same,AUC 0-49 h,[2]; [5],120.99 ± 6.05 µg·h/mL
same,Cmax,[2]; [5],6300 ± 450 ng/mL
same,Cmin,[2]; [5],2370 ± 340 ng/mL
same,AUC 0-49 h,[2]; [6],119.78 ± 8.84 µg·h/mL
same,Cmax,[2]; [6],6370 ± 220 ng/mL
same,Cmin,[2]; [6],2350 ± 190 ng/mL
same,AUC 0-49 h,[2]; [7],3.97 ± 0.09 µg·h/mL
same,Cmax,[2]; [7],6220 ± 330 ng/mL
same,Cmin,[2]; [7],0 ng/mL
same,AUC 0-49 h,[2]; [8],102.66 ± 6.91 µg·h/mL
same,Cmax,[2]; [8],6320 ± 250 ng/mL
same,Cmin,[2]; [8],1930 ± 240 ng/mL
same,AUC 0-49 h,[2]; [9],124.40 ± 4.27 µg·h/mL
same,Cmax,[2]; [9],6230 ± 230 ng/mL
same,Cmin,[2]; [9],2470 ± 310 ng/mL
same,AUC 0-49 h,[2]; [10],153.43 ± 11.01 µg·h/mL
same,Cmax,[2]; [10],6280 ± 370 ng/mL
same,Cmin,[2]; [10],2880 ± 230 ng/mL
